From ChEMBL document CHEMBL4007467, “Effects of 6-paradol, an unsaturated ketone from gingers, on cytochrome P450-mediated drug metabolism” (Bioorg Med Chem Lett, 2017)

Assays:
Assay type in all cases: ADME
Set-up in all cases: scale not given: the % may be the effect or the level left
CYP2D6 = CYP2D6 (Homo sapiens, UniProt P10635); experiment: Inhibition of CYP2D6 in human liver microsomes assessed as enzyme-mediated metabolite formation at 1 uM using dextromethorphan as substrate preincubated for 20 mins followed by substrate addition measured after 30 mins in presence of NADPH by LC-MS/MS analysis relative to control; conditions: probe dextromethorphan, read-out: Activity
CYP2C9 [1] = molecular target: T1, CYP2C9 (Homo sapiens, UniProt P11712); experiment: Inhibition of CYP2C9 in human liver microsomes assessed as enzyme-mediated metabolite formation at 30 uM using diclofenac as substrate preincubated for 20 mins followed by substrate addition measured after 30 mins in presence of NADPH by LC-MS/MS analysis relative to control; conditions: probe diclofenac, read-out: Activity
CYP2C19 [2] = molecular target: T2, CYP2C19 (Homo sapiens, UniProt P33261); experiment: Inhibition of CYP2C19 in human liver microsomes assessed as enzyme-mediated metabolite formation at 0.3 uM using (S)-mephenytoin as substrate incubated for 5 mins followed by NADPH addition measured after 30 mins by LC-MS/MS analysis relative to control; conditions: probe (S)-mephenytoin, read-out: Activity
CYP1A2 [3] = molecular target: T3, CYP1A2 (Homo sapiens, UniProt P05177); experiment: Inhibition of CYP1A2 in human liver microsomes assessed as enzyme-mediated metabolite formation at 30 uM using phenacetin as substrate preincubated for 20 mins followed by substrate addition measured after 30 mins in presence of NADPH by LC-MS/MS analysis relative to control; conditions: probe phenacetin, read-out: Activity
T3 sequence (P05177 whole entry): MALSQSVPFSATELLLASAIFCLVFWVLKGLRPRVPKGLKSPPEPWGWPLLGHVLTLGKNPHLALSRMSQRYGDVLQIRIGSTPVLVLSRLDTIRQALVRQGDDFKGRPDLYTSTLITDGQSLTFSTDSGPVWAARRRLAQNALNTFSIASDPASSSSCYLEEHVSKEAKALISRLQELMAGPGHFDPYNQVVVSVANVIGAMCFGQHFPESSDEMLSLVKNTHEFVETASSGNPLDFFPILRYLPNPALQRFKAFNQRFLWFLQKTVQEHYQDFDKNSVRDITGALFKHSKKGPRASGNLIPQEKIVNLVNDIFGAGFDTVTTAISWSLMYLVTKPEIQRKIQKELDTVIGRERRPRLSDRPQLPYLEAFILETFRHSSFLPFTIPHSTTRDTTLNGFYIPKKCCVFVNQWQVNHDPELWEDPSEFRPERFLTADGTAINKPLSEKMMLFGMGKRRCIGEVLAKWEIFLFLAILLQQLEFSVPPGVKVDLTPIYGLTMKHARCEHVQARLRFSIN

CYP2C8 = molecular target: T4, CYP2C8 (Homo sapiens, UniProt P10632); experiment: Inhibition of CYP2C8 in human liver microsomes assessed as enzyme-mediated metabolite formation at 30 uM using paclitaxel as substrate incubated for 5 mins followed by NADPH addition measured after 30 mins by LC-MS/MS analysis relative to control; conditions: probe paclitaxel, read-out: Activity
T4 sequence (P10632 whole entry): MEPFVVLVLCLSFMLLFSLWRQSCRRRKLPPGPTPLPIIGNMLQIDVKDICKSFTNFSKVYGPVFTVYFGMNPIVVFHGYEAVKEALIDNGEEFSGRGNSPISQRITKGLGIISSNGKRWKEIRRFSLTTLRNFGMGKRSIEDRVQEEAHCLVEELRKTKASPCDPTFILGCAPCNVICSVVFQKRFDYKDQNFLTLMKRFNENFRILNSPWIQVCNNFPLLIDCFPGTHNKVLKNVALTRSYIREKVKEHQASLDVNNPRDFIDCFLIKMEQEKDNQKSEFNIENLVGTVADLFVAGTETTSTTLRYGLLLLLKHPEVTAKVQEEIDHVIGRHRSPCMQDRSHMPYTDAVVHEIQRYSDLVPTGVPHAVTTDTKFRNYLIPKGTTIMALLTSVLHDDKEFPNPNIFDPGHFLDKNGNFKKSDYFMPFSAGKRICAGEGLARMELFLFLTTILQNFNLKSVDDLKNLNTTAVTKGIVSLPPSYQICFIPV

CYP2C9 [4] = molecular target: T1, CYP2C9; experiment: Inhibition of CYP2C9 in human liver microsomes assessed as enzyme-mediated metabolite formation at 3 uM using diclofenac as substrate preincubated for 20 mins followed by substrate addition measured after 30 mins in presence of NADPH by LC-MS/MS analysis relative to control; conditions: probe diclofenac, read-out: Activity
CYP3A4 [5] = molecular target: T5, CYP3A4 (Homo sapiens, UniProt P08684); experiment: Inhibition of CYP3A4 in human liver microsomes assessed as enzyme-mediated metabolite formation at 0.3 uM using testosterone as substrate incubated for 5 mins followed by NADPH addition measured after 30 mins by LC-MS/MS analysis relative to control; conditions: probe testosterone, read-out: Activity
CYP2C9 [6] = molecular target: T1, CYP2C9; experiment: Inhibition of CYP2C9 in human liver microsomes assessed as enzyme-mediated metabolite formation at 0.1 uM using diclofenac as substrate incubated for 5 mins followed by NADPH addition measured after 30 mins by LC-MS/MS analysis relative to control; conditions: probe diclofenac, read-out: Activity
CYP1A2 [7] = molecular target: T3, CYP1A2; experiment: Inhibition of CYP1A2 in human liver microsomes assessed as enzyme-mediated metabolite formation at 10 uM using phenacetin as substrate incubated for 5 mins followed by NADPH addition measured after 30 mins by LC-MS/MS analysis relative to control; conditions: probe phenacetin, read-out: Activity
CYP1A2 [8] = molecular target: T3, CYP1A2; experiment: Inhibition of CYP1A2 in human liver microsomes assessed as enzyme-mediated metabolite formation at 0.1 uM using phenacetin as substrate preincubated for 20 mins followed by substrate addition measured after 30 mins in presence of NADPH by LC-MS/MS analysis relative to control; conditions: probe phenacetin, read-out: Activity
CYP1A2 [9] = molecular target: T3, CYP1A2; experiment: Inhibition of CYP1A2 in human liver microsomes assessed as enzyme-mediated metabolite formation at 3 uM using phenacetin as substrate incubated for 5 mins followed by NADPH addition measured after 30 mins by LC-MS/MS analysis relative to control; conditions: probe phenacetin, read-out: Activity
CYP3A4 [10] = molecular target: T5, CYP3A4; experiment: Inhibition of CYP3A4 in human liver microsomes assessed as enzyme-mediated metabolite formation at 0.1 uM using midazolam as substrate incubated for 5 mins followed by NADPH addition measured after 30 mins by LC-MS/MS analysis relative to control; conditions: probe midazolam, read-out: Activity
CYP2C19 [11] = molecular target: T2, CYP2C19; experiment: Inhibition of CYP2C19 in human liver microsomes assessed as enzyme-mediated metabolite formation at 3 uM using (S)-mephenytoin as substrate incubated for 5 mins followed by NADPH addition measured after 30 mins by LC-MS/MS analysis relative to control; conditions: probe (S)-mephenytoin, read-out: Activity

T1 sequence (P11712 whole entry): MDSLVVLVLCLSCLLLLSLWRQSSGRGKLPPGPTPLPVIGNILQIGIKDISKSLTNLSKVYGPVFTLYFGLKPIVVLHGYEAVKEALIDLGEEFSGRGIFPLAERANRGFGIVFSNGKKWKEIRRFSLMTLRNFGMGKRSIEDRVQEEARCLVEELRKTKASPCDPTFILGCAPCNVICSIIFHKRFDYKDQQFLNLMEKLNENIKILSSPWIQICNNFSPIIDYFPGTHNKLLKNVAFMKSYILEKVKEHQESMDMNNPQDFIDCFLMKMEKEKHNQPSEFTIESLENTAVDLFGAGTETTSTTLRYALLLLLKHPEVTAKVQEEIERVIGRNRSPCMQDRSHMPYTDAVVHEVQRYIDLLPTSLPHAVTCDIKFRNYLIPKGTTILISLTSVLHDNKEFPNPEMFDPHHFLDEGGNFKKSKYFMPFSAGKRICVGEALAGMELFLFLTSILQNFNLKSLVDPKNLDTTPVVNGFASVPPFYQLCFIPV
T2 sequence (P33261 whole entry): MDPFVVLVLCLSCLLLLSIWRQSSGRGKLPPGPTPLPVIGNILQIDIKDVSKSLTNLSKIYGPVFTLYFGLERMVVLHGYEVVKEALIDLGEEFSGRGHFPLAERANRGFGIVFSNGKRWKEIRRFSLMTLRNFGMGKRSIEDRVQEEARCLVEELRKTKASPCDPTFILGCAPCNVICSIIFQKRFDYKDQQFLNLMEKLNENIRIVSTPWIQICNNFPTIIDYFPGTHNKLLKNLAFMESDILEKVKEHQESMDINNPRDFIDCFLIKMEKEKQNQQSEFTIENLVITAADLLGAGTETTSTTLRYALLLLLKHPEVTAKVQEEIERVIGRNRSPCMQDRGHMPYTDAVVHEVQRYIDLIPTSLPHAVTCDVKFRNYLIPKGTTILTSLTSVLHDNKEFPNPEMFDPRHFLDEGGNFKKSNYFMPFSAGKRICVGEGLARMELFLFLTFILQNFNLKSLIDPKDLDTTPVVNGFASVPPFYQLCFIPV
T5 sequence (P08684 whole entry): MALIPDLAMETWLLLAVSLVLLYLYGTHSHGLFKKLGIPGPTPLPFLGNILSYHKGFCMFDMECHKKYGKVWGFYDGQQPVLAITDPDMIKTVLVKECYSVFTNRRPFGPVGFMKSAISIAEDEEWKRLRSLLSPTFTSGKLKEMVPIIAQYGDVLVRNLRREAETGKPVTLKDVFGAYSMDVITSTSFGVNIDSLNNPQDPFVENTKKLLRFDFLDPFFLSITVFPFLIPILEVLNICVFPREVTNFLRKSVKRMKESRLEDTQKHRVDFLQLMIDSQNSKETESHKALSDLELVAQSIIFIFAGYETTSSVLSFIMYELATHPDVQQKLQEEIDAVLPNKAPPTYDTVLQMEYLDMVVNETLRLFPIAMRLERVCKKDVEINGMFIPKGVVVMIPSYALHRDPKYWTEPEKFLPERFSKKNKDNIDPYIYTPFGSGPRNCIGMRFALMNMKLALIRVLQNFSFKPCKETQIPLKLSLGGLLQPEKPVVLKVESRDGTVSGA
CYP2D6, sequence (P10635 whole entry): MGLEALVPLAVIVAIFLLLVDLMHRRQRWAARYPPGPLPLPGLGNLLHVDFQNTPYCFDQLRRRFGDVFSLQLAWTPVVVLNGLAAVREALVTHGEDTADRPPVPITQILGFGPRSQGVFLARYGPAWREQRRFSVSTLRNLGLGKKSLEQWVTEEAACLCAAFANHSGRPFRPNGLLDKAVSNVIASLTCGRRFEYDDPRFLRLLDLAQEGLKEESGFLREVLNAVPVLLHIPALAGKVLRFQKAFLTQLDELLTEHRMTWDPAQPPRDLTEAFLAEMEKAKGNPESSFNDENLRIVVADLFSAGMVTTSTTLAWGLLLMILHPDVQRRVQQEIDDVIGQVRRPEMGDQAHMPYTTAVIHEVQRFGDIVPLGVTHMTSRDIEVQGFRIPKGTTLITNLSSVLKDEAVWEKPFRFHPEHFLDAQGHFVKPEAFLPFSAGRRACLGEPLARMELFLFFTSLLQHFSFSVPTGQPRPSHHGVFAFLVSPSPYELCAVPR

CCCCCCCC(=O)CCc1ccc(O)c(OC)c1
activity at 0.5 h, 1 µM (CYP2D6): 92.2% | activity at 0.5 h, 30 µM (CYP2C9 [1]): 46.9% | activity at 0.5 h, 0.3 µM (CYP2C19 [2]): 85.8% | activity at 0.5 h, 30 µM (CYP1A2 [3]): 42.8% | activity at 0.5 h, 30 µM (CYP2C8): 35.5% | activity at 0.5 h, 3 µM (CYP2C9 [4]): 78.8% | activity at 0.5 h, 0.3 µM (CYP3A4 [5]): 75.2% | activity at 0.5 h, 0.1 µM (CYP2C9 [6]): 120% | activity at 0.5 h, 10 µM (CYP1A2 [7]): 49.7% | activity at 0.5 h, 0.1 µM (CYP1A2 [8]): 97.2% | activity at 0.5 h, 3 µM (CYP1A2 [9]): 72% | activity at 0.5 h, 0.1 µM (CYP3A4 [10]): 109% | activity at 0.5 h, 3 µM (CYP2C19 [11]): 78.6%
